Laboratory results as given in patent EP1060748A1, “REMEDIES FOR CORNEAL EPITHELIUM DISTURBANCE” (Wakamoto Pharmaceutical Co., Ltd., priority 1998, dated 1999).
Counter-ions that a name gives are not always drawn.

System: human corneal epithelial cell line HCEC
Assay: Protection against UV-C-induced human corneal epithelial cell damage, viable cell count
Assay type: cell-based
Conditions: Table 8-2, UV-C 5 seconds
Procedure: Human corneal epithelial cell line HCEC was suspended in 10% fetal bovine serum-SHEM modified medium at a concentration of 1×10^5 cells/ml and 500 µl of this cell suspension was seeded into each well of a 24-multiwell plate (Corning). The cells were cultured in a 5% CO2 incubator at 37°C for 16 to 17 hours. Then, the culture supernatant was thoroughly removed and 500 µl of 10% fetal bovine serum-SHEM modified medium containing a test sample was added to each well. The cells were cultured under the same conditions as above for a further two hours. After completion of culture in contact with the sample, the culture supernatant was removed thoroughly so that there would be substantially no residue of the sample in the multiwell plate. The multiwell plate in this condition was irradiated with UV-C, the ultraviolet light with a maximum lethal power, at a distance of 20 to 30 cm for 5 seconds. After UV-C irradiation, 500 µl/well of 10% fetal bovine serum-SHEM modified medium containing the same sample as above was added again and the cells were cultured under the same conditions as above for 16 to 17 hours. Then, the supernatant was discarded from each well and 100 µl of an excision solution (PBS containing 0.25% trypsin (w/v) and 0.02% EDTA) was added. The plate was then incubated in a 5% CO2 incubator at 37 °C for 6 minutes. After this incubation, the viable epithelial cells were thoroughly detached and dispersed by pipetting and stained with 100 µl of 0.1% (w/v) trypan blue staining solution, and immediately the viable cells were counted with a hemocytometer. The protective effect of the sample against UV-induced human corneal epithelial cell damage was evaluated by the following computation. Protective effect (%) = (number of viable cells in sample-added group ÷ number of viable cells in sample-free group) × 100 [formula]

SMILES	Protective effect (%) (20 µM)	Protective effect (%) (2 mM)
CC(=O)Oc1c(C)c(C)c2c(c1C)CCC(C)(CCCC(C)CCCC(C)CCCC(C)C)O2 (racemic) [Vitamin E, DL-α-tocopherol acetate]	107%	
O=C1O[C@H]([C@@H](O)CO)C(O)=C1O [Vitamin C, ascorbic acid]		104%
CC(=O)N(O)CCCCCNC(=O)CCC(=O)N(O)CCCCCNC(=O)CCC(=O)N(O)CCCCCN [Deferoxamine mesylate]		94%
N[C@@H](CCC(=O)N[C@@H](CS)C(=O)NCC(=O)O)C(=O)O [Glutathione]		95%
N[C@@H](CS)C(=O)O [Cysteine]		46%
